From publication PMC12736120, “First-in-Human Phase I Clinical Trial of SLC-391, a Novel and Selective AXL Inhibitor, in Patients with Advanced Solid Tumours” (Pharmaceuticals, 2025)
Read-outs that look alike come from different tables or passages of the source.

Assay: Plasma pharmacokinetics, QD and BID cohorts (non-compartmental)
Assay type: in vivo, human
Details: for Cmax / Tmax / AUC / AUC(0-t) / concentration at 21 days: human, plasma, oral; for concentration at 21 days: read-out: Cmin, range across cohorts
Procedure: PK parameters were calculated by standard non-compartmental methods for SLC-391. Due to the long half-life of SLC-391 compared to the dosing interval, it was not possible to calculate a number of PK parameters, including plasma half-life and rate of elimination. Accumulation was assessed from the mean accumulation ratio factor (AR factor) calculated as the repeated dose (C1D21) mean value/single dose (C1D1) mean value for the PK parameters Cmax, AUC0–12, and AUC0–last for each dose group.
During QD dosing, blood samples for determination of SLC-391 plasma concentrations were collected predose and at 0.5, 1, 2, 3, 4, 6, 8, and 24 h after SLC-391 administration on cycle 1 day 1 (C1D1) and cycle 1 day 21 (C1D21). During BID dosing, blood samples were collected predose and at 1, 2, 3, 4, 6, 8, and 12 h after the first daily dose (before the second daily dose). Where possible, further samples were then collected at 13, 14, 22, and 24 h after the initial dose (predose C1D2). Blood samples were also collected on C1D21 (steady state) predose and at 1, 2, 3, 4, 6, 8, and 12 h after the first daily dose (before the second daily dose). Where possible, further samples were then collected at 13, 14, 22, and 24 h after the initial C1D21 dose (predose C2D1). An additional blood sample was also taken, where possible, at the end of treatment (EOT) visit.
After collection, blood samples were centrifuged, and plasma was separated and stored at −80 °C. Plasma concentrations of SLC-391 were measured by a validated analytical method involving liquid–liquid extraction followed by high-performance liquid chromatography (HPLC)–mass/mass spectroscopy assay using a Water Quattro Premier tandem quadrupole mass spectroscopy with Waters MassLynx data acquisition and processing software. Plasma analysis was carried out by Microconstants (San Diego, CA, USA) in compliance with the US FDA GLP regulations. The calibration range of the assay was from 0.100 to 100 ng/mL. Quality control samples prepared at 4 different analyte concentrations were analysed with each batch of samples against a separately prepared calibration standard. PK parameters were collected following single (day 1) and repeat dose (day 21) administration. PK parameters were summarised with appropriate descriptive statistics where possible (e.g., mean, geometric mean, median, maximum, minimum, and coefficient of variation). Descriptive PK parameters were determined by standard non-compartmental methods based on the concentration–time data of each subject. The nominal time was used for descriptive statistics calculations, and the actual sample collection times were used in PK analyses. PK analyses were performed using validated Phoenix WinNonlin Professional 8.3 (Certara, L.P., St. Louis, MO, USA).

Nc1ncc(-c2cnn(C3CCNCC3)c2)cc1-c1nnc(CC2CC2)o1 [SLC-391, 3-(5-[cyclopropylmethyl]-1,3,4-oxadiazol-2-yl)-5-(1-[piperidin-4-yl]-1H-pyrazol-4-yl)-pyridin-2-amine]
Cmax (110 mg, 110 mg BID, C1D1, median, n=3, plasma, read-out: Cmax): 93.1 ng/mL | Tmax (110 mg, 110 mg BID, C1D1, median, n=3, plasma, read-out: Tmax): 3 h | AUC (110 mg, 110 mg BID, C1D21, mean, n=3, plasma, read-out: AUC0–12): 2260 ng·h/mL | AUC(0-t) (110 mg, 110 mg BID, C1D21, mean, n=3, plasma, read-out: AUC0–last): 4280 ng·h/mL | Cmax (110 mg, 110 mg BID, C1D21, mean, n=3, plasma, read-out: Cmax): 249 ng/mL | Tmax (110 mg, 110 mg BID, C1D21, mean, n=3, plasma, read-out: Tmax): 2.4 h | AUC (110 mg, 110 mg BID, C1D21, median, n=3, plasma, read-out: AUC0–12): 1390 ng·h/mL | AUC(0-t) (110 mg, 110 mg BID, C1D21, median, n=3, plasma, read-out: AUC0–last): 2560 ng·h/mL | Cmax (110 mg, 110 mg BID, C1D21, median, n=3, plasma, read-out: Cmax): 187 ng/mL | Tmax (110 mg, 110 mg BID, C1D21, median, n=3, plasma, read-out: Tmax): 2.1 h | AUC (125 mg, QD, C1D1, read-out: AUC0–12, Mean): 672 ng·h/mL | AUC (125 mg, QD, C1D1, read-out: AUC0–12, Median): 877 ng·h/mL | AUC(0-t) (125 mg, QD, C1D1, read-out: AUC0–last, Mean): 1040 ng·h/mL | AUC(0-t) (125 mg, QD, C1D1, read-out: AUC0–last, Median): 1280 ng·h/mL | Cmax (125 mg, QD, C1D1, read-out: Cmax, Mean): 103 ng/mL | Cmax (125 mg, QD, C1D1, read-out: Cmax, Median): 123 ng/mL | Tmax (125 mg, QD, C1D1, read-out: Tmax, Mean): 2 h | Tmax (125 mg, QD, C1D1, read-out: Tmax, Median): 2.1 h | AUC (125 mg, QD, C1D21, read-out: AUC0–12, Mean): 1120 ng·h/mL | AUC (125 mg, QD, C1D21, read-out: AUC0–12, Median): 1380 ng·h/mL | AUC(0-t) (125 mg, QD, C1D21, read-out: AUC0–last, Mean): 1840 ng·h/mL | AUC(0-t) (125 mg, QD, C1D21, read-out: AUC0–last, Median): 2340 ng·h/mL | Cmax (125 mg, QD, C1D21, read-out: Cmax, Mean): 147 ng/mL | Cmax (125 mg, QD, C1D21, read-out: Cmax, Median): 188 ng/mL | Tmax (125 mg, QD, C1D21, read-out: Tmax, Mean): 2 h | Tmax (125 mg, QD, C1D21, read-out: Tmax, Median): 2 h | AUC (150 mg, 150 mg BID, C1D1, mean, n=5, plasma, read-out: AUC0–12): 1050 ng·h/mL | AUC(0-t) (150 mg, 150 mg BID, C1D1, mean, n=6, plasma, read-out: AUC0–last): 2330 ng·h/mL | Cmax (150 mg, 150 mg BID, C1D1, mean, n=6, plasma, read-out: Cmax): 236 ng/mL | Tmax (150 mg, 150 mg BID, C1D1, mean, n=6, plasma, read-out: Tmax): 9 h | AUC (150 mg, 150 mg BID, C1D1, median, n=5, plasma, read-out: AUC0–12): 1070 ng·h/mL | AUC(0-t) (150 mg, 150 mg BID, C1D1, median, n=6, plasma, read-out: AUC0–last): 1680 ng·h/mL | Cmax (150 mg, 150 mg BID, C1D1, median, n=6, plasma, read-out: Cmax): 208 ng/mL | Tmax (150 mg, 150 mg BID, C1D1, median, n=6, plasma, read-out: Tmax): 2 h | AUC (150 mg, 150 mg BID, C1D21, mean, n=6, plasma, read-out: AUC0–12): 4620 ng·h/mL | AUC(0-t) (150 mg, 150 mg BID, C1D21, mean, n=6, plasma, read-out: AUC0–last): 9080 ng·h/mL | Cmax (150 mg, 150 mg BID, C1D21, mean, n=6, plasma, read-out: Cmax): 527 ng/mL | Tmax (150 mg, 150 mg BID, C1D21, mean, n=6, plasma, read-out: Tmax): 3.5 h | AUC (150 mg, 150 mg BID, C1D21, median, n=6, plasma, read-out: AUC0–12): 4860 ng·h/mL | AUC(0-t) (150 mg, 150 mg BID, C1D21, median, n=6, plasma, read-out: AUC0–last): 10000 ng·h/mL | Cmax (150 mg, 150 mg BID, C1D21, median, n=6, plasma, read-out: Cmax): 549 ng/mL | Tmax (150 mg, 150 mg BID, C1D21, median, n=6, plasma, read-out: Tmax): 2.9 h | AUC (150 mg, QD, C1D1, read-out: AUC0–12, Mean): 946 ng·h/mL | AUC (150 mg, QD, C1D1, read-out: AUC0–12, Median): 892 ng·h/mL | AUC(0-t) (150 mg, QD, C1D1, read-out: AUC0–last, Mean): 1610 ng·h/mL | AUC(0-t) (150 mg, QD, C1D1, read-out: AUC0–last, Median): 1460 ng·h/mL | Cmax (150 mg, QD, C1D1, read-out: Cmax, Mean): 156 ng/mL | Cmax (150 mg, QD, C1D1, read-out: Cmax, Median): 126 ng/mL | Tmax (150 mg, QD, C1D1, read-out: Tmax, Mean): 5.5 h | Tmax (150 mg, QD, C1D1, read-out: Tmax, Median): 2.1 h | AUC (150 mg, QD, C1D21, read-out: AUC0–12, Mean): 2140 ng·h/mL | AUC (150 mg, QD, C1D21, read-out: AUC0–12, Median): 2080 ng·h/mL | AUC(0-t) (150 mg, QD, C1D21, read-out: AUC0–last, Mean): 3620 ng·h/mL | AUC(0-t) (150 mg, QD, C1D21, read-out: AUC0–last, Median): 3510 ng·h/mL | Cmax (150 mg, QD, C1D21, read-out: Cmax, Mean): 254 ng/mL | Cmax (150 mg, QD, C1D21, read-out: Cmax, Median): 269 ng/mL | Tmax (150 mg, QD, C1D21, read-out: Tmax, Mean): 2.6 h | Tmax (150 mg, QD, C1D21, read-out: Tmax, Median): 2 h | AUC (175 mg, QD, C1D1, n 1, read-out: AUC0–12, Mean): 1500 ng·h/mL | AUC (175 mg, QD, C1D1, n 1, read-out: AUC0–12, Median): 1500 ng·h/mL | AUC(0-t) (175 mg, QD, C1D1, read-out: AUC0–last, Mean): 1580 ng·h/mL | AUC(0-t) (175 mg, QD, C1D1, read-out: AUC0–last, Median): 1580 ng·h/mL | Cmax (175 mg, QD, C1D1, read-out: Cmax, Mean): 357 ng/mL | Cmax (175 mg, QD, C1D1, read-out: Cmax, Median): 357 ng/mL | Tmax (175 mg, QD, C1D1, read-out: Tmax, Mean): 2 h | Tmax (175 mg, QD, C1D1, read-out: Tmax, Median): 2 h | AUC (200 mg, 200 mg BID, C1D1, mean, n=3, plasma, read-out: AUC0–12): 985 ng·h/mL | AUC(0-t) (200 mg, 200 mg BID, C1D1, mean, n=3, plasma, read-out: AUC0–last): 2050 ng·h/mL | Cmax (200 mg, 200 mg BID, C1D1, mean, n=3, plasma, read-out: Cmax): 174 ng/mL | Tmax (200 mg, 200 mg BID, C1D1, mean, n=3, plasma, read-out: Tmax): 9.7 h | AUC (200 mg, 200 mg BID, C1D1, median, n=3, plasma, read-out: AUC0–12): 1130 ng·h/mL | AUC(0-t) (200 mg, 200 mg BID, C1D1, median, n=3, plasma, read-out: AUC0–last): 2170 ng·h/mL | Cmax (200 mg, 200 mg BID, C1D1, median, n=3, plasma, read-out: Cmax): 178 ng/mL | Tmax (200 mg, 200 mg BID, C1D1, median, n=3, plasma, read-out: Tmax): 3.1 h | AUC (200 mg, 200 mg BID, C1D21, mean, n=2, plasma, read-out: AUC0–12): 8550 ng·h/mL | AUC(0-t) (200 mg, 200 mg BID, C1D21, mean, n=2, plasma, read-out: AUC0–last): 16400 ng·h/mL | Cmax (200 mg, 200 mg BID, C1D21, mean, n=2, plasma, read-out: Cmax): 874 ng/mL | Tmax (200 mg, 200 mg BID, C1D21, mean, n=2, plasma, read-out: Tmax): 2.4 h | AUC (200 mg, 200 mg BID, C1D21, median, n=2, plasma, read-out: AUC0–12): 8550 ng·h/mL | AUC(0-t) (200 mg, 200 mg BID, C1D21, median, n=2, plasma, read-out: AUC0–last): 16400 ng·h/mL | Cmax (200 mg, 200 mg BID, C1D21, median, n=2, plasma, read-out: Cmax): 874 ng/mL | Tmax (200 mg, 200 mg BID, C1D21, median, n=2, plasma, read-out: Tmax): 2.4 h | AUC(0-t) (BID, 75 mg to 200 mg, C1D1, read-out: mean AUC0–last, range across cohorts): 1170 to 2330 ng·h/mL | Cmax (BID, 75 mg to 200 mg, C1D1, read-out: mean Cmax, range across cohorts): 95.2 to 236 ng/mL | Tmax (BID, 75 mg to 200 mg, C1D1, read-out: median Tmax, range across cohorts): 2 to 3.1 h | AUC(0-t) (BID, 75 mg to 200 mg, C1D21, read-out: mean AUC0–last, range across cohorts): 4280 to 16400 ng·h/mL | Cmax (BID, 75 mg to 200 mg, C1D21, read-out: mean Cmax, range across cohorts): 249 to 874 ng/mL | Tmax (BID, 75 mg to 200 mg, C1D21, read-out: median Tmax, range across cohorts): 1.9 to 2.9 h | AUC(0-t) (QD, 25 mg to 150 mg, C1D21, read-out: mean AUC0–last, range across cohorts): 461 to 3620 ng·h/mL | Cmax (QD, 25 mg to 150 mg, C1D21, read-out: mean Cmax, range across cohorts): 41.9 to 436 ng/mL | Tmax (QD, 25 mg to 150 mg, C1D21, read-out: median Tmax, range across cohorts): 1.5 to 2.1 h | AUC(0-t) (QD, 25 mg to 175 mg, C1D1, read-out: mean AUC0–last, range across cohorts): 270 to 1580 ng·h/mL | Cmax (QD, 25 mg to 175 mg, C1D1, read-out: mean Cmax, range across cohorts): 32.5 to 357 ng/mL | Tmax (QD, 25 mg to 175 mg, C1D1, read-out: median Tmax, range across cohorts): 0.9 to 2.1 h | concentration at 21 days (after 21 days of BID dosing): 146 to 472 ng/mL | concentration at 21 days (after 21 days of QD dosing): 10.3 to 152 ng/mL | Tmax (overall, as stated in the abstract, read-out: median Tmax): 2 h | steady state of plasma concentrations (multiple doses, QD and BID): appeared to reach a steady state by day 21
